What was measured:
[1] = molecular target: T1, HIV-1 RT double mutant K103N/Y181C (Human immunodeficiency virus type 1 group M subtype B, UniProt P04585, K690N/Y768C); assay: Reverse Transcriptase (RT) assay, double mutant enzyme; assay type: biochemical
T1 construct: Heterodimeric RT was eluted using a descending gradient; made in house; host or cells: E. coli (inferred; the text describes only wild type and Y181C preparations)
Source text: (§1) Among the enzymes for which Human Immunodeficiency Virus (HIV-1) encodes is a reverse transcriptase (1), so-named because it transcribes a DNA copy from an RNA template. This activity can be quantitatively measured in a cell-free enzyme assay, which has been previously described (2), and is based upon the observation that reverse transcriptase is able to use a synthetic template poly r(C) primed with oligo d(G) to transcribe a radio-labelled, acid-precipitable DNA strand utilising ^3H-dGTP as a substrate. The assay described below utilises the wild type (WT) enzyme, which is the predominant form of the enzyme observed with patients infected with HIV-1. Utilisation of mutant RT enzymes (for example, Y181C, prepared by site-directed mutagenesis in which the tyrosine residue at codon 181 has been replaced by a cysteine residue, or the mutants K103N, V106A and Y188C) and analogous assay conditions allows compounds to be evaluated for their effectiveness at inhibiting the mutant enzymes.
(§2) The HIV-1 RT expression clone, pKRT2, was obtained from Yale University (3). An overnight culture, grown in 2×YT medium (37° C., 225 rpm) (4), supplemented with 100 μg/mL ampicillin for positive selection was used to inoculate the 2×YT medium. The culture was incubated (37° C., 225 rpm) until it reached an OD600 of 0.6-0.9. At that time, the repressor inhibitor IPTG (isopropyl P-D-thiogalactopyranoside) was added to 0.5 mM, and the mixture was incubated for an additional 2 hours.
(§3) Purification of recombinant reverse transcriptase was performed using a combination of methods previously described (5). This procedure is summarised briefly as follows: E. Coli containing RT-1 wt or RT-1 (Y181 C) were suspended in 50 mM MES, pH 6.0 containing 10% glycerol, lysed in a French press, centrifuged, and the supernates discarded. Lysate pellets were extracted with buffer A (50 mM MES, pH 6.0, 100 mM KCl, 50 mM KPi, 10% glycerol, 0.02% hexyl-β-glucoside), and re-centrifuged; nucleic acid in supernates was precipitated with 0.1% polyethylenimine. […] Bound RT was eluted with a gradient of 0 to 1.0M
(§4) (NH4)2 SO4 in buffer B. Heparin-Sepharose fractions containing RT were concentrated (Amicon YM-30 membrane), combined with equal volumes of 2.0M (NH4)2SO4 in buffer B and injected onto a 21.5×150 mm TSK Phenyl-5PW HIC HPLC column (Phenomenex). Heterodimeric RT was eluted using a descending gradient of 1.0M to 0M (NH4)2SO4 in buffer B, concentrated, and stored at 4° C.
(§5) The 2.4× concentrated stock reaction mixture was aliquoted and stored at −20° C. The mixture is stable and can be thawed for use in each assay. This enzyme assay has been adapted to a 96 well microtiter plate system, and has been previously described (6). Tris buffer (50 mM, pH 7.8), vehicle (solvent diluted to match the compound dilution), or compounds in vehicle were dispensed into 96-well microtiter plates (10 μL/well; 3 wells/compound). The HIV-1 RT enzyme was thawed, diluted in 50 mM Tris pH 7.8 containing 0.05% Chaps to give 1.5 nM enzyme and 25 μL were dispensed per well. Ten μL of 0.5M EDTA were added to the first three wells of the microtiter plate. EDTA chelates the Mg^2+ present and prevents reverse transcription. This group served as background polymerisation, which was subtracted, from all other groups. Twenty-five μl of the 2.4× reaction mixture was added to all wells and the assay was allowed to incubate at room temperature for 30 minutes. The assay was terminated by precipitating the DNA in each well with 60 μL of sodium pyrophosphate (2% w/v) in 10% trichloroacetic acid (TCA) (10% w/v). The microtiter plate was incubated for 15 minutes at 4° C. and the precipitate was harvested onto #30 glass fibre paper (Schleicher & Schuell) using a Tomtech 96-well harvester. The filters were dried, placed in plastic bags with Betaplate scintillation cocktail (Pharmacia/LKB) and counted in the Betaplate counter (Pharmacia/LKB).
(§6) The calculation for percent inhibition is as follows: [formula] […]

HIV-1 RT wild type (WT) = molecular target: T2, HIV-1 RT wild type (WT) (Human immunodeficiency virus type 1 group M subtype B, UniProt P04585); assay: Reverse Transcriptase (RT) assay, wild type enzyme; assay type: biochemical
T2 construct: Heterodimeric RT was eluted using a descending gradient; made in house; host or cells: E. coli
Source text: as §1, §2, §3, §4, §5, §6

CCN1c2ncc(CCOc3cccc4c3CCS(=O)(=O)N4C(=O)N3CCCC3)cc2C(=O)N(C)c2cccnc21 [Compound 619]
IC50 [1]: < 100 nM | IC50 (HIV-1 RT wild type (WT)): < 100 nM

Cc1cc(F)nc2c1NC(=O)c1cc(CCOc3cccc4c3CS(=O)(=O)N4)cnc1N2C1CC1 [Compound 106]
IC50 (HIV-1 RT wild type (WT)): < 100 nM

CCN1c2ncc(CCOc3cccc4c3C=CS(=O)(=O)N4CC)cc2C(=O)N(C)c2cccnc21 [Compound 807]
IC50 [1]: < 100 nM | IC50 (HIV-1 RT wild type (WT)): < 100 nM

CCN1c2ncc(CCOc3cccc4c3CS(=O)(=O)N4CC(=O)NC3CC3)cc2C(=O)N(C)c2cccnc21 [Compound 139]
IC50 [1]: 100 to 1000 nM | IC50 (HIV-1 RT wild type (WT)): < 100 nM

Cc1cc(F)nc2c1NC(=O)c1cc(CCOc3cccc4c3CS(=O)(=O)N4C)cnc1N2C1CC1 [Compound 118]
IC50 [1]: 100 to 1000 nM | IC50 (HIV-1 RT wild type (WT)): < 100 nM

CCN1c2ncc(CCOc3cccc4c3CCS(=O)(=O)N4C(=O)N3CCN(C)CC3)cc2C(=O)N(C)c2cccnc21 [Compound 620]
IC50 [1]: < 100 nM | IC50 (HIV-1 RT wild type (WT)): < 100 nM

CCN1c2ncc(CCOc3ccc4c(c3)CNS4(=O)=O)cc2C(=O)N(C)c2cccnc21 [Compound 301]
IC50 [1]: 100 to 1000 nM | IC50 (HIV-1 RT wild type (WT)): < 100 nM

CCN1c2ncc(CCOc3cccc4c3CCS(=O)(=O)N4C(=O)N(C)OC)cc2C(=O)N(C)c2cccnc21 [Compound 611]
IC50 [1]: < 100 nM | IC50 (HIV-1 RT wild type (WT)): < 100 nM

CCN1c2ncc(CCOc3cccc4c3CS(=O)(=O)N4CC(=O)N(C)O)cc2C(=O)N(C)c2cccnc21 [Compound 134]
IC50 [1]: < 100 nM | IC50 (HIV-1 RT wild type (WT)): < 100 nM

CCN1c2ncc(CCOc3ccc4c(c3)C(C)(C)NS4(=O)=O)cc2C(=O)N(C)c2cccnc21 [Compound 306]
IC50 [1]: < 100 nM | IC50 (HIV-1 RT wild type (WT)): < 100 nM

CCN1c2ncc(CCOc3cccc4c3CS(=O)(=O)N4C)cc2C(=O)N(C)c2ccc(C)nc21 [Compound 114]
IC50 [1]: < 100 nM | IC50 (HIV-1 RT wild type (WT)): < 100 nM

CCN1c2ncc(COc3cccc4c3CS(=O)(=O)N4)cc2C(=O)N(C)c2ccc(F)nc21 [Compound 104]
IC50 (HIV-1 RT wild type (WT)): > 1000 nM

CCN1c2ncc(COc3cccc4c3CS(=O)(=O)N4C)cc2C(=O)N(C)c2ccc(F)nc21 [Compound 107]
IC50 (HIV-1 RT wild type (WT)): < 100 nM

CCN1c2ncc(CCOc3cccc4c3CS(=O)(=O)N4)cc2C(=O)Nc2c(C)ccnc21 [Compound 120]
IC50 (HIV-1 RT wild type (WT)): 100 to 1000 nM

CCN1c2ncc(COc3cccc4c3CS(=O)(=O)N4Cc3cc[n+]([O-])cc3)cc2C(=O)N(C)c2ccc(F)nc21 [Compound 148]
IC50 (HIV-1 RT wild type (WT)): < 100 nM

CCNC(=O)CN1c2cccc(OCCc3cnc4c(c3)C(=O)N(C)c3cccnc3N4CC)c2CS1(=O)=O [Compound 140]
IC50 [1]: < 100 nM | IC50 (HIV-1 RT wild type (WT)): < 100 nM

CCN1c2ncc(CCOc3cccc4c3CS(=O)(=O)N4CCOc3cc[n+]([O-])cc3)cc2C(=O)N(C)c2cccnc21 [Compound 143]
IC50 [1]: < 100 nM | IC50 (HIV-1 RT wild type (WT)): < 100 nM

CCN1c2ncc(CCOc3cccc4c3CCS(=O)(=O)N4Cc3ncc[nH]3)cc2C(=O)N(C)c2cccnc21 [Compound 642]
IC50 [1]: < 100 nM | IC50 (HIV-1 RT wild type (WT)): < 100 nM

CCN1c2ncc(CCOc3ccc4c(c3)CS(=O)(=O)N4)cc2C(=O)N(C)c2cccnc21 [Compound 402]
IC50 [1]: > 1000 nM | IC50 (HIV-1 RT wild type (WT)): < 100 nM

CCN1c2ncc(CCOc3cccc4c3C(C)(C)NS4(=O)=O)cc2C(=O)N(C)c2cccnc21 [Compound 224]
IC50 [1]: 100 to 1000 nM | IC50 (HIV-1 RT wild type (WT)): < 100 nM

CCN1c2ncc(CCOc3ccc4c(c3)C(C)(C)N(C)S4(=O)=O)cc2C(=O)N(C)c2cccnc21 [Compound 307]
IC50 [1]: 100 to 1000 nM | IC50 (HIV-1 RT wild type (WT)): < 100 nM

CCN1c2ncc(CCOc3cccc4c3CS(=O)(=O)N4Cc3cc[n+]([O-])cc3)cc2C(=O)Nc2c(C)cc(F)nc21 [Compound 145]
IC50 [1]: < 100 nM | IC50 (HIV-1 RT wild type (WT)): < 100 nM

Cc1cc(F)nc2c1N(C)C(=O)c1cc(CCOc3cccc4c3CS(=O)(=O)N4C)cnc1N2C1CC1 [Compound 119]
IC50 [1]: 100 to 1000 nM | IC50 (HIV-1 RT wild type (WT)): < 100 nM

CCN1c2ncc(CCOc3cccc4c3CCS(=O)(=O)N4CC(=O)O)cc2C(=O)N(C)c2cccnc21 [Compound 614]
IC50 [1]: < 100 nM | IC50 (HIV-1 RT wild type (WT)): < 100 nM

CCN1c2ncc(CCOc3cccc4c3CS(=O)(=O)N4)cc2C(=O)Nc2c(C)cc(C)nc21 [Compound 109]
IC50 [1]: 100 to 1000 nM | IC50 (HIV-1 RT wild type (WT)): < 100 nM

CCN1c2ncc(CCOc3cccc4c3CS(=O)(=O)N4CC(=O)NO)cc2C(=O)N(C)c2cccnc21 [Compound 133]
IC50 [1]: < 100 nM | IC50 (HIV-1 RT wild type (WT)): < 100 nM

CCN1c2ncc(CCOc3cccc4c3CS(=O)(=O)N4CC3CC3)cc2C(=O)Nc2c(C)ccnc21 [Compound 121]
IC50 [1]: 100 to 1000 nM | IC50 (HIV-1 RT wild type (WT)): < 100 nM

CCN1c2ncc(CCOc3cccc4c3CCS(=O)(=O)N4CS(C)(=O)=O)cc2C(=O)N(C)c2cccnc21 [Compound 627]
IC50 [1]: < 100 nM | IC50 (HIV-1 RT wild type (WT)): < 100 nM

CCN1c2ncc(CCOc3cccc4c3CCS(=O)(=O)N4C(=O)N3CCOCC3)cc2C(=O)N(C)c2cccnc21 [Compound 618]
IC50 [1]: < 100 nM | IC50 (HIV-1 RT wild type (WT)): < 100 nM

CCN1c2ncc(CCOc3cccc4c3CCS(=O)(=O)N4CC(N)=O)cc2C(=O)N(C)c2cccnc21 [Compound 609]
IC50 [1]: < 100 nM | IC50 (HIV-1 RT wild type (WT)): < 100 nM

CCN1C(=O)c2cc(CCOc3cccc4c3C=CS(=O)(=O)N4C)cnc2N(CC)c2ncccc21 [Compound 806]
IC50 [1]: < 100 nM | IC50 (HIV-1 RT wild type (WT)): < 100 nM

CCN1c2ncc(CCOc3ccc4c(c3)CN(C)S4(=O)=O)cc2C(=O)N(C)c2cccnc21 [Compound 303]
IC50 [1]: 100 to 1000 nM | IC50 (HIV-1 RT wild type (WT)): < 100 nM

CCOC(=O)N1c2cccc(OCCc3cnc4c(c3)C(=O)N(C)c3cccnc3N4CC)c2CS1(=O)=O [Compound 122]
IC50 [1]: < 100 nM | IC50 (HIV-1 RT wild type (WT)): < 100 nM

CCN1c2ncc(CCOc3ccc4c(c3)CNS4(=O)=O)cc2C(=O)Nc2c(C)cc(F)nc21 [Compound 310]
IC50 [1]: 100 to 1000 nM | IC50 (HIV-1 RT wild type (WT)): < 100 nM

CCN1c2ncc(CCOc3cccc4c3CS(=O)(=O)N4CCOc3ccncc3)cc2C(=O)N(C)c2cccnc21 [Compound 142]
IC50 [1]: < 100 nM | IC50 (HIV-1 RT wild type (WT)): < 100 nM

CCN1c2ncc(CCOc3cccc4c3CS(=O)(=O)N4)cc2C(=O)N(C)c2ccc(C)nc21 [Compound 113]
IC50 [1]: 100 to 1000 nM | IC50 (HIV-1 RT wild type (WT)): < 100 nM

CCN1c2ncc(CCOc3cccc4c3CS(=O)(=O)N4C)cc2C(=O)N(C)c2ccc(F)nc21 [Compound 111]
IC50 [1]: < 100 nM | IC50 (HIV-1 RT wild type (WT)): < 100 nM

CCN(CC)CCN1c2cccc(OCCc3cnc4c(c3)C(=O)N(C)c3cccnc3N4CC)c2CCS1(=O)=O [Compound 613]
IC50 [1]: < 100 nM | IC50 (HIV-1 RT wild type (WT)): < 100 nM

CCOC(=O)CCCN1c2cccc(OCCc3cnc4c(c3)C(=O)N(C)c3cccnc3N4CC)c2CS1(=O)=O [Compound 135]
IC50 [1]: < 100 nM | IC50 (HIV-1 RT wild type (WT)): < 100 nM

Cc1ccnc2c1NC(=O)c1cc(CCOc3cccc4c3CS(=O)(=O)N4Cc3cc[n+]([O-])cc3)cnc1N2C1CC1 [Compound 144]
IC50 [1]: 100 to 1000 nM | IC50 (HIV-1 RT wild type (WT)): < 100 nM

Cc1ccnc2c1NC(=O)c1cc(CCOc3cccc4c3C(C)(C)NS4(=O)=O)cnc1N2C1CC1 [Compound 226]
IC50 [1]: > 1000 nM | IC50 (HIV-1 RT wild type (WT)): < 100 nM

CCN1c2ncc(CCOc3cccc4c3C=CS(=O)(=O)N4)cc2C(=O)N(C)c2cccnc21 [Compound 808]
IC50 (HIV-1 RT wild type (WT)): 100 to 1000 nM

CCN1c2ncc(COc3cccc4c3C(C)S(=O)(=O)N4C)cc2C(=O)N(C)c2ccc(F)nc21 (centres unmarked) [Compound 108]
IC50 (HIV-1 RT wild type (WT)): 100 to 1000 nM

CN1C(=O)c2cc(CCOc3cccc4c3CS(=O)(=O)N4)cnc2N(C2CC2)c2ncccc21 [Compound 105]
IC50 (HIV-1 RT wild type (WT)): < 100 nM

Source: patent publication US6716836B2, “Non-nucleoside reverse transcriptase inhibitors” (Boehringer Ingelheim (Canada) Ltd., priority 2001, dated 2004)
